Experiments:
[1] = tested on: FGL-induced survival of CGN; experiment: Effect of inhibitors of FGFR, MEK and PI3K on FGL-induced survival of CGN; assay type: cell-based, rat; conditions: 10 μg/ml FGLd, low KCl
Method: Thereafter the MEK inhibitor PD98059 ([…]), PI3K inhibitor LY294002 (▴) and FGFR inhibitor SU5402 (▪) were added at various concentrations. The addition of the inhibitors followed in all cases by the addition of 10 μg/ml FGLd. […] Results from at least four individual experiments are shown as percentage of the number of live neurons relative to the total number of neurons ±SEM, with control cultures treated with FGLd set at 100%.

[2] = tested on: FGL-induced neurite outgrowth in CGN cultures; experiment: Effect of inhibitors of FGFR, MEK and PI3K on FGL-induced neurite outgrowth in CGN; assay type: cell-based, rat; conditions: for FGLd-induced neurite outgrowth in CGN in presence of inhibitor: FGLd-treated control = 100%
Method: CGN cultures were grown for 24 hours at a density of 10,000 cells/cm^2 on 8-well permanox slides in the presence of the FGL peptide and an inhibitor. PD98059 ([…]) was added at concentrations of 12.5, 25 and 50 μM simultaneously with 10 μg/ml FGLd; LY294002 (▴) was added at concentrations of 3.5, 7 and 10 μM simultaneously with 27 μg/ml FGLd. SU5402 (▪) was added in concentrations of 20, 40 and 80 μM simultaneously with 27 μg/ml FGLd. After the treatment cells were fixed and immunostained for GAP-43. Results from at least four independent experiments are shown as percentage ±SEM, with FGLd-treated control cultures set at 100%. The dashed line indicates the average neurite length in cultures without FGLd-treatment. *p<0.05, **p<0.01 when compared to the FGLd-treated controls.
(§1) Peptide solutions without or with inhibitors of various signal transduction pathways were added to a total volume of 300 μl/cm^2, and the slides were incubated at 37° C. After 24 hours, the neurons were fixed with 4% (v/v) formaldehyde for 20 minutes and thereafter immunostained using primary rabbit antibodies against GAP-43 and Alexa Fluor secondary goat anti-rabbit antibodies. Images of at least 200 neurons for each group in each individual experiment were obtained systematically by using computer assisted fluorescence microscopy as previously described (Rønn et al., 2000 op. cit.). Briefly, a Nikon Diaphot inverted microscope with a Nikon Plan 20× objective (Nikon, Tokyo, Japan) coupled to a video camera (Grundig Electronics, Germany) was used for recordings. The same software package as described above for the dopaminergic neurite outgrowth assay was used to process the recorded images.

[3] = tested on: FGL-induced neurite outgrowth in CGN cultures; conditions: previously found; cited from earlier work
hippocampal neurons [4] = experiment: Neurite outgrowth, hippocampal neurons; assay type: cell-based, rat
Method: The cultures were subsequently immunostained for tyrosine hydroxylase. Hippocampal neurons and CGN were plated at a density of 10,000 cells/cm^2 on 8-well permanox chamber slides and incubated for 24 hours in the presence of various concentrations of FGLd. Subsequently the neurons were immunostained for GAP-43. Results from at least five independent experiments for each neuronal culture are shown as percentage ±SEM with the untreated controls set at 100%. *p<0.05, **p<0.01, ***p<0.001 when compared to the controls.
Results from at least four independent experiments are shown as percentage SEM with untreated controls set at 100%. **p<0.01 when compared to the controls.
as §1

rat FGFR1 (IIIC isoform) = target: T1, rat FGFR1 (IIIC isoform) (Rattus norvegicus, UniProt Q04589); experiment: Phosphorylation of FGFR1 in transfected HEK293 cells; assay type: cell-based; conditions: 20 μg/ml; 20 min; HEK293 cells transfected with rat FGFR1
T1 construct: expressed in transfected cells; host or cells: HEK293 cells, transiently transfected with a pcDNA3.1(+) plasmid (Invitrogen)
Method: The EFL peptide is derived from the Fn 3, 2 module of NCAM and represents the E strand-loop-G strand part of the module. For the experiments the peptide was synthesised as described above. […] The peptide is also capable to bind and stimulate FGFR1 in cells expressing the receptor, wherein the peptide induces the receptor phosphorylation (at concentration 20 μg/ml by more then 300%). Phosphorylation of FGFR1 was studied using the following assay. […] Cells were grown for another 24 hrs in full medium, and then shifted to starvation media (DMEM 1965) overnight. FGFR transfected cells were stimulated for 20 min with the EFL monomer, lysed in 8M urea, 1 mM orthovanadate (in PBS) and purified from the lysate via the His-tag as follows: The lysate was loaded on Ni^2+/NTA-sepharose (Qiagen), washed with lysis buffer plus 10 mM imidazole, and the FGFR was eluted with lysis buffer plus 250 mM imidazole. The purified FGFR was analysed by immunoblotting using anti-pentahis (Qiagen) or anti-phosphotyrosine (PY20, Transduction Laboratories) antibodies. The bands were visualised by chemilumiscense and the band density was measured using a GeneGnome apparatus (SynGene).

[5] = tested on: cerebellar granule neurons (CGN); experiment: Survival of CGN induced to undergo apoptosis by low KCl; conditions: individual monomer; low KCl
hippocampal neurons [6] = experiment: FM 1-43 destaining (presynaptic vesicle turnover) in hippocampal neurons; assay type: cell-based, rat; conditions: added simultaneously with FGLd
Method: The values were compared using an unpaired t-test. *p=0.04 (1 h) and **p=0.0032 (48 h). FGLcontrol is a control peptide consisting the sequence […] (SEQ ID NO: 147).
The effects of FGLd on vesicle turnover was estimated in primary cultures of hippocampal neurons from embryonic rats (E19). The cultures were prepared as above. Following 13-16 days in vitro, FGLd was added to the cultures and incubated for 1, 24 or 48 hours. After 48 hours of incubation, the FGFR-inhibitor (SU 5402) was added simultaneously with FGLd to some of the cultures.
After treatment with FGLd the neurons were labeled with the fluorescent membrane probe FM 1-43 as described by Kiryushko et al (2003) J Biol. Chem. 278:12325-34. The rate of FM 1-43 release (destaining of cells) evoked by depolarisation with 90 mM potassium was then evaluated by a time-lapse image acquisition using the Radiance 2000 scanning system and a Nikon eclipse TE200 confocal microscopy.

[7] = tested on: dissociated hippocampal neurons; experiment: OGD, metabolic activity (MTS) in dissociated hippocampal cell cultures; assay type: cell-based, rat; conditions: inhibitor 25 μM together with FGLd for 24 hours before OGD
Description: (§2) In the present study it was investigated the effect of the FGL peptide on synaptic plasticity, neuronal function and vulnerability following oxygen and glucose deprivation (OGD) in organotypic hippocampal neuronal slice cultures (OHSC) from 7-day-old Wistar rats according to method of Stoppini et al. (1991) Neurosci Methods. 37:173-82 and primary cultures of dissociated hippocampal neurons from 1-day-old rats according to method of Maar et al. (1997) J Neurosci Res. 47:163-72. Primary cell cultures were maintained for 11-12 days and OHSC for 12-14 days prior to adding FGLd.
(§3) The primary cell cultures and OHSC were exposed to OGD for 10 and 20 minutes. Following OGD, the cultures were again supplied with oxygen and glucose and analysed at 1, 4 or 24 hour time point after introduction of OGD exposure. FGLd (or the control peptide FGLc) was added 24 hr before, immediately, or 1 hr or 24 hr after OGD. When administered prior to OGD, FGLd was removed from the medium when introducing OGD. In some cases, the slice cultures were treated with FGLd only at 4 hr after OGD. In addition, the FGFR inhibitor, SU5402 (25 μM), was added together with FGLd in some of the set-ups.
(§4) In hippocampal neuronal cultures, FM 1-43 staining was used to evaluate pre-synaptic function (described above). Cell viability in both primary cell cultures and OHSC was measured using the […] [3-(4,5-dimethylthiazol-2-yl)-2,5-diphenyltetrazolium bromide] assay according to Malich et al, (1997) Toxicology. 124:179-92. In, addition, cell viability in OHSC was measured using propidium iodide (PI) staining according to Laake et al. (1999) Brain Res Brain Res Protoc. 4:173-84.

[8] = tested on: dissociated hippocampal neurons; experiment: OGD, FM 1-43 release in dissociated hippocampal cell cultures; assay type: cell-based, rat; conditions: together with FGLd
Description: as §2, §3, §4

[9] = tested on: organotypic hippocampal neuronal slice cultures (OHSC); experiment: OGD, propidium iodide staining of OHSC; assay type: cell-based, rat; conditions: inhibitor together with FGLd
Description: as §2, §3, §4

T1 sequence (Q04589 22-822): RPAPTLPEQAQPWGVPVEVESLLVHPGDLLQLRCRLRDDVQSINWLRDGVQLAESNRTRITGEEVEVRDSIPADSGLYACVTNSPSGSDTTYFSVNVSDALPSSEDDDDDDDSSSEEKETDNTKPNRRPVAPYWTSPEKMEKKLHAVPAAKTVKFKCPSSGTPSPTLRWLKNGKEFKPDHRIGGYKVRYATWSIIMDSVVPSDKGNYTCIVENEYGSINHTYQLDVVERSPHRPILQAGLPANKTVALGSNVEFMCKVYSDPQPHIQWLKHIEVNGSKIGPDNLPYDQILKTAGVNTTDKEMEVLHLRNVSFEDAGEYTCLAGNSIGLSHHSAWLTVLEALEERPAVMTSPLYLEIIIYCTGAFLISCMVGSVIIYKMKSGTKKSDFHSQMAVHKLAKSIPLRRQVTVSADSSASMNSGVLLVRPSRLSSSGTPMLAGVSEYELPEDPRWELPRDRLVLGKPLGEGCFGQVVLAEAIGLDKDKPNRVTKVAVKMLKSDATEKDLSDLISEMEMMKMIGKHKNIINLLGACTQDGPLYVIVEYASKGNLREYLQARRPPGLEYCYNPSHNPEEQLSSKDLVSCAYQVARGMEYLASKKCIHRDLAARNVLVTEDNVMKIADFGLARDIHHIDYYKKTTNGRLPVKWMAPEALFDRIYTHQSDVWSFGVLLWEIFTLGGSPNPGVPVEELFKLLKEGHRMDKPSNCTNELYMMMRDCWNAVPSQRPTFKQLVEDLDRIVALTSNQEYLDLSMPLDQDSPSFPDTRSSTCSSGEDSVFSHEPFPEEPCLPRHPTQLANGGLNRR

COc1cccc(-c2cc(=O)c3ccccc3o2)c1N [PD98059]
inhibition of FGLd-induced survival of CGN ([1]; 12.5 μM inhibitor): inhibited cell survival induced by FGLd to the level of the control cultures
FGLd-induced neurite outgrowth in CGN in presence of inhibitor ([2]; inhibitor above 25 μM, 10 μg/ml FGLd): 75%
effect on basal neurite outgrowth in CGN [3]: not to affect the basal neurite outgrowth

NIEVWVEAENALGKKV (Interleukin-6 receptor beta chain [Swiss-Prot: Q00560]: FGFR binding motif) [EFL peptide]
neurite outgrowth of rat hippocampal neurons (hippocampal neurons [4]; individual monomer): strongly stimulate neurite outgrowth
FGFR1 phosphorylation induced by the peptide (rat FGFR1 (IIIC isoform)): > 300%
survival of rat cerebellar neurons [5]: stimulate survival

Cc1c[nH]c(/C=C2\C(=O)Nc3ccccc32)c1CCC(=O)O [SU5402]
inhibition of FGLd-induced survival of CGN ([1]; 20 μM inhibitor): significantly inhibited the survival response to FGLd
inhibition of FGLd-induced survival of CGN ([1]; 40 μM inhibitor): reduced the FGLd-induced survival to the survival rate of the untreated apoptosis-induced control neurons
block of EFL-stimulated neuritogenic activity by inhibitor of FGFR1 (hippocampal neurons [4]; with EFL peptide): specifically blocked
FGLd-induced neurite outgrowth in CGN in presence of inhibitor ([2]; 80 μM inhibitor, 27 μg/ml FGLd): 35%
effect on neurite outgrowth in control CGN cultures not treated with FGLd ([2]; data not shown): without significant effect on neurite outgrowth
effect of FGFR inhibitor on FGLd-increased FM 1-43 destaining (hippocampal neurons [6]): abolished the effect of FGLd
metabolic activity after OGD, FGLd pretreatment with FGFR-inhibitor present [7]: did not diminish the OGD-induced reduction in metabolic activity
effect of FGFR-inhibitor on FGLd action on OGD-induced decrease in FM 1-43 release [8]: abrogated the effect of FGLd
PI staining after OGD, pre-incubation with FGFR-inhibitor together with FGLd [9]: the PI staining was similar to that of OGD alone
